Read-outs that look alike come from different tables or passages of the source. Peptide text beside a SMILES is read from it.
Assays:
[1] = system: primary cortical neuronal cultures; conditions: for neuroprotection (neuronal viability): peptide 15 min prior to and during glutamic acid exposure, viability 24 h, MTS; for neuroprotection, milder insult: FIG. 1i, comparison at 0.5 μM and 1 μM
Protocol: Briefly, cortical tissue from E18-E19 Sprague-Dawley rats was dissociated in Dulbecco's modified Eagle medium (DMEM; Invitrogen, Australia) supplemented with 1.3 mM L-cysteine, 0.9 mM NaHCOa, 10 units/ml papain (Sigma, USA) and 50 units/ml DNase (Sigma) and washed in cold DMEM/10% horse serum. Neurons were resuspended in Neurobasal (Invitrogen) containing 2% B27 supplement (B27; Invitrogen). Before seeding, 96-well sized glass wells (6 mm diameter, ProTech, Australia) or 96-well plastic plates (ProSciTech, Australia) were coated with poly-D-lysine overnight ([…]: 50 mg/mL; 70-150 K, Sigma). […] Neurons were plated to obtain ≈10,000 viable neurons for each well on day in vitro 11-12. […] On day in vitro 4 one third of the culture medium was removed and replaced with fresh Neurobasal/2% B27 containing the mitotic inhibitor, cytosine arabinofuraNOside (1 mM final concentration; Sigma). On day in vitro 8 one half of the culture medium was replaced with Neurobasal/2% B27.
To induce excitotoxicity, 50 μl of Neurobasal/2% B27 containing glutamic acid (200 μM) or kainic acid (400 μM) or NMDA (200 μM) was added to the culture wells (100 μM glutamic acid, 200 μM kainic acid and NMDA 100 μM final concentration). Cultures were incubated at 37° C. in the CO2 incubator for 5 minutes for glutamic acid, 45 minutes for kainic acid and 10 minutes for NMDA exposure, after which time the media was replaced with 100 μl of 50% Neurobasal/2% N2 supplement (Invitrogen) and 50% balanced salt solution (BSS; see below). Cultures were incubated for a further 24 hours at 37° C. in the CO2 incubator. The untreated controls with or without glutamic acid or kainic acid treatment received the same wash steps and media additions.
Following this step, cultures were treated as described above. Untreated controls with or without glutamic acid exposure received the same wash steps and media additions. In addition, a post-glutamic acid exposure CPP treatment (5 μM) experiment was performed for the R9 peptide and the JNKI-1D-TAT control peptide.
For pre-glutamic acid exposure experiments, neurons were exposed to peptide(s) for a 10 minute period, immediately before or 1, 2, 3, 4 or 5 hours prior to glutamic acid exposure. […] At the relevant peptide pre-treatment time, media was removed and replaced with 100 μl of Neurobasal/2%. […] Following 5-minute glutamic acid exposure, neuronal culture wells were treated as described above. For all experiments untreated controls with or without glutamic acid treatment underwent the same incubation steps and media additions.
Heparin (for injection) was obtained from Pfizer (1000 IU/ml). Two different heparin experiments were performed: 1. Peptides were incubated with heparin (20 IU/ml) in Neurobasal/B27 for 5 minutes at room temperature, before addition to culture wells (50 μl) for 15 minutes at 37° C. in the CO2 incubator. Following the incubation period, media in wells was removed and replaced with 100 μl of Neurobasal/2% B27 containing glutamic acid (100 μM), and subsequently treated as described above; 2. Media in wells was replaced with Neurobasal/2% B27 containing heparin (50 μl; 40 IU/ml) and incubated for 5 minutes at 37° C. in the CO2 incubator. After the incubation period, peptides or glutamate receptor blockers (MK801/CNQX) in Neurobasal/2% B27 (50 μl) were added to the culture wells and cultures incubated for a further 10 minutes at 37° C. in the CO2 incubator. Following the incubation period, media in wells was removed and replaced with 100 μl of Neurobasal/2% B27 containing glutamic acid (100 μM), and subsequently treated as described above. For all experiments, non-heparin treated peptide controls with glutamic acid treatment underwent the same incubation steps and media additions.
Twenty-four hours after insult, neuronal cultures were examined by light microscopy for qualitative assessment of neuronal cell viability.

[2] = system: primary cortical neuronal cultures; assay: In vitro ischemia / oxygen-glucose deprivation (OGD) model, neurons; format: cell-based, rat
[3] = system: intracellular calcium influx in neuronal cultures; assay: Intracellular calcium influx (Fura-2 AM) after glutamic acid; format: cell-based, rat; conditions: peptide 5 μM for 10 min, removed before 100 μM glutamic acid (FIG. 44)
Protocol: Fura-2 AM was used for intracellular calcium assessment. Representative fluorescent Fura-2 AM tracers; fluorescence intensity (FI) of neuronal cultures 30 sec before and following addition (arrow) of glutamic acid (100 μM final concentration). Peptides or glutamate receptor blockers were added to neuronal cultures for 10 min and removed (time 0) before glutamic acid. Values are mean±SE; n=3. Peptide concentration was 5 μM.
Briefly, cortical tissue from E18-E19 Sprague-Dawley rats was dissociated in Dulbecco's modified Eagle medium (DMEM; Invitrogen, Australia) supplemented with 1.3 mM L-cysteine, 0.9 mM NaHCOa, 10 units/ml papain (Sigma, USA) and 50 units/ml DNase (Sigma) and washed in cold DMEM/10% horse serum. Neurons were resuspended in Neurobasal (Invitrogen) containing 2% B27 supplement (B27; Invitrogen). Before seeding, 96-well sized glass wells (6 mm diameter, ProTech, Australia) or 96-well plastic plates (ProSciTech, Australia) were coated with poly-D-lysine overnight (50 ml/well: 50 mg/mL; 70-150 K, Sigma). Excess poly-D-lysine solution was then removed and replaced with Neurobasal (containing 2% B27; 4% fetal bovine serum; 1% horse serum; 62.5 mM glutamate; 25 mM 2-mercaptoethanol; and 30 mg/mL streptomycin and 30 mg/mL penicillin). Neurons were plated to obtain ≈10,000 viable neurons for each well on day in vitro 11-12. Neuronal cultures were maintained in a CO2 incubator (5% CO2, 95% air balance, 98% humidity) at 37° C. On day in vitro 4 one third of the culture medium was removed and replaced with fresh Neurobasal/2% B27 containing the mitotic inhibitor, cytosine arabinofuraNOside (1 mM final concentration; Sigma). On day in vitro 8 one half of the culture medium was replaced with Neurobasal/2% B27. Cultures were used on day in vitro 11 or 12 after which time they routinely consist of >97% neurons and 1-3% astrocytes (Meloni et al. 2001).

[4] = system: permanent middle cerebral artery occlusion (MCAO) stroke model; assay: Rat permanent middle cerebral artery occlusion (MCAO) stroke model; format: in vivo; conditions: 1 μmol/kg IV 30 min post-MCAO; infarct volume 24 h post-MCAO (FIGS. 5, 27)
Protocol: Administration of peptide (DR9: rrrrrrrrr-NH2; R12, R15, R18, protamine sulphate; protamine) or vehicle (saline: 0.9% NaCl) treatment solution was performed at 30 min post-MCAO. The peptide treatment comprised DR9 in saline (600 μl) to provide an intravenous loading dose of 1 μmol/kg or 1000 nmol/kg given over 5-6 min via the right jugular vein.
This study was approved by the Animal Ethics Committee of the University of Western Australia. Male Sprague Dawley rats weighing 270 g to 350 g were kept under controlled housing conditions with 12 hour light-dark cycle with free access to food and water. Experimental animals were fasted overnight and subjected to permanent middle cerebral artery occlusion (MCAO) as follows.
Anaesthesia was induced with 4% isoflurane and a 2:1 mix of N2O and O2 via mask. Anaesthesia was maintained at 1.7-2% isoflurane. Cerebral blood flow (CBF) was monitored continuously using laser Doppler flowmetry (Blood FlowMeter, AD Instruments, Sydney, Australia). The probe was located 1 mm caudal and 4 mm lateral (right) to the bregma. A cannula was inserted in the right femoral artery to continuously monitor blood pressure and to provide samples for blood glucose and blood gas readings. Blood glucose was measured using a glucometer (MediSense Products, Abbott Laboratories, Bedford, Mass., USA) and blood gases were measured using a blood gas analyser (ABL5, Radiometer, Copenhagen, Denmark). Blood pressure was maintained at 80-100 mmHg. During surgery, rectal temperature was maintained at 37±0.5° C. and warming applied with a fan heater when necessary. For intravenous infusions, a length of PVC line primed with heparinised saline was tied in place in the right jugular vein, then externalised through a dorsal mid-scapular incision to a tether/swivel system (Instech Laboratories, Philadelphia, USA) designed to permit free movement.
The right common carotid artery (CCA) was exposed via a ventral neck incision. […] The isolated section of the ECA was ligated and cauterised to create a stump. The carotid body was removed and the pterygopalatine artery was ligated. A 4-0 nylon monofilament with a 0.39 mm diameter silicone tip (Doccol, Redlands, Calif., USA) was inserted through the ECA stump into the CCA and advanced rostrally into the internal carotid artery (ICA) until the laser Doppler flowmetry recorded a >30% decrease from baseline of cerebral blood flow. The monofilament was secured in two places (at the base of the ECA stump and on the ICA) for the remainder of the experiment. Animals were given post-operative analgesia consisting of pethidine (3 mg/kg intramuscular) and bupivacaine (1.5 mg/kg subcutaneously) at head and leg incision sites.
Post-surgery animals were allowed to recover in a climate-controlled chamber and their core body temperature monitored and maintained at 37±0.5° C. by a cooling/heating fan when required for 3-4 hours.
Animals were sacrificed 24 hours post-MCAO with intra-peritoneal injections of sodium pentobarbitone (900 mg/kg). […] Slices were scanned and images were analysed by an operator blind to treatment status using ImageJ 3rd edition (NIH, USA). The total infarct volume was determined by adding the areas of infarcted tissue on both sides of the 2 mm sections. These measured areas were multiplied by half slice thickness (1 mm), and corrected for cerebral oedema by multiplying the ratio of affected to normal hemisphere areas. […]

With “H-EEEEEEEEE-RRRRRRRRR-OH (H-EEEEEEEEERRRRRRRRR-OH) [E9/R9, reference compound]” the “neuroprotection (neuronal viability)” value ([1]; listed as E91R9) was “no protection”.
PRRRRSSRRPVRRRRRPRVSRRRRRGGRRRR [Ptm2] was tested, and the “neuroprotection (neuronal viability)” value [1] was “neuroprotective”, the “neuroprotection when added for 15 minutes after OGD” value ([2]; FIGS. 31, 20, 22, 1 μM and 5 μM in FIG. 31) was “neuroprotective” and the “neuroprotection in the OGD model (overall statement)” value ([2]; discussion summary) was “neuroprotective”.
With H-RRRRRRRR-OH [Peptide R8] the “concentration at which (significant) neuroprotection displayed” value ([1]; dose response studies FIGS. 6, 7, 8) was 5 µM and the “neuroprotection (neuronal viability)” value [1] was “moderate to high level neuroprotection”.
For “H-YARAAARQARA-OH [PTD-4, reference compound]”, the “neuroprotection (neuronal viability)” value [1] was “little to no neuroprotective properties” and the “neuroprotection (neuronal viability)” value ([1]; listed as PTA4) was “largely ineffective”.
In the case of `N=C(N)NCCC[C@H](N)C(=O)O` [Peptide R1, H-R-OH], the “neuroprotection, milder insult” value [1] is reported as “ineffective”, the “neuroprotection (neuronal viability)” value [1] is reported as “no to little neuroprotection” and the IC50 ([1]; read-out: IC50: Glutamic acid model, Table 4, polyarginine peptides, from dose response graph FIG. 1e) is reported as greater than 5 µM.
For PRRRRSSSRPVRRRRRPRVSRRRRRGGRRRR [Ptm3], the “neuroprotection (neuronal viability)” value [1] was “neuroprotective”.
For “H-KETWWETWWTEWSQPKKKRKV-NH2 [Pep-1, reference compound]”, the IC50 ([2]; 24 h) was greater than 15 µM, the “lower concentrations at which neuroprotective” value ([2]; FIG. 3a) was 1 to 5 µM and the neuroprotection ([2]; peptide present during in vitro ischemia and at 50% dose after (FIG. 3a)) was “neuroprotective following in vitro ischemia at lower concentrations”.
With `N=C(N)NCCC[C@H](NC(=O)[C@H](CCCNC(=N)N)NC(=O)[C@@H](N)CCCNC(=N)N)C(=O)O` [Peptide R3, H-RRR-OH] (H-Arg-Arg-Arg-OH) the IC50 [1] was greater than 5 µM, the “neuroprotection, milder insult” value [1] was “ineffective” and the “neuroprotection (neuronal viability)” value [1] was “no to little neuroprotection”.
With “GRKKRRQRRRG [TAT, the TAT peptide, reference compound]” the “neuroprotection when peptide washed-out prior to glutamic acid exposure” value ([1]; 15 min incubation, wash-out before insult (FIG. 1c)) was “loss of efficacy” and the “calcium influx after glutamic acid” value [3] was “to varying degrees reduced calcium influx”.
With `N=C(N)NCCC[C@H](NC(=O)[C@H](CCCNC(=N)N)NC(=O)[C@H](CCCNC(=N)N)NC(=O)[C@H](CCCNC(=N)N)NC(=O)[C@H](CCCNC(=N)N)NC(=O)[C@@H](N)CCCNC(=N)N)C(=O)O` [Peptide R6, H-RRRRRR-OH] the IC50 [1] was greater than 5 µM and the “neuroprotection, milder insult” value [1] was “ineffective”.
In the case of “H-GRKKRRQRRR-PPRPKRPTTLNLFPQVPRSQDT-OH (H-GRKKRRQRRRPPRPKRPTTLNLFPQVPRSQDT-OH) [TAT-JNKI-1, reference compound]”, the “neuroprotection (neuronal viability)” value [1] is reported as “neuroprotective” and the “calcium influx after glutamic acid” value [3] is reported as “to varying degrees reduced calcium influx”.
For “H-RRRRRRRRRPGRVVGGRRRRRRRRR-OH [R9/tPA/R9]”, the IC50 [1] was 0.29 µM, the order of potency ([1]; dose response studies, glutamate model) was “potency between R12 and R18” and the “neuroprotection (neuronal viability)” value [1] was “highly effective”.
With “Ac-PLFAE-RRRRRRRRR-NH2 (Ac-PLFAERRRRRRRRR-NH2) [Cal/R9]” the “neuroprotection (neuronal viability)” value [1] was “moderate to high level neuroprotection”.
With “H-RRERRRRSCAGCSRARGSCRSCRR-NH2 (cysteine pairing not given here) [NCXBP3]” the “neuroprotection (neuronal viability)” value [1] was “high levels of protection”.
For “H-AAVALLPAVLLALLAP-OH [kFGF, reference compound]”, the “neuroprotection (neuronal viability)” value [1] was “ineffective”.
In the case of “H-AAVALLPAVLLALLAP-PPRPKRPTTLNLFPQVPRSQDT-OH (H-AAVALLPAVLLALLAPPPRPKRPTTLNLFPQVPRSQDT-OH) [kFGF-JNKI-1, reference compound]”, the “neuroprotection (neuronal viability)” value [1] is reported as “not neuroprotective”.
For H-rrrrrrrrr-NH2 [D-R9], the “reduction of infarct volume (brain damage)” value [4] was “approximately 20%”, the “effect of heparin on neuroprotective action” value ([1]; heparin 20 IU/ml with peptide or 40 IU/ml on cultures (FIGS. 39, 40)) was “blocks neuroprotective actions” and the “calcium influx after glutamic acid” value [3] was “to varying degrees reduced calcium influx”.

— patent US20160250285A1, “NEUROPROTECTIVE PEPTIDES” (priority 2013, published 2016)
